Calls of active or inactive are those of the source. The rule behind the calls is not given here.
System: CCRIS mutagenicity, Ames/micronucleus/aberration tests
Experiment: CCRIS mutagenicity studies
[1] = Test System: AMES SALMONELLA TYPHIMURIUM, Strain/Indicator: TA100, Metabolic Activation: NONE, Method: STANDARD PLATE

Compound: CC1CN(N=O)CC(C)O1 (stereo not given)
- mutagenic call (Test System: AMES SALMONELLA TYPHIMURIUM, Strain/Indicator: TA100, Metabolic Activation: HAMSTER, LIVER, S-9, 3-METHYLCHOLANTHRENE, Method: PREINCUBATION): active; positive
- mutagenic call (Test System: AMES SALMONELLA TYPHIMURIUM, Strain/Indicator: TA100, Metabolic Activation: HAMSTER, LIVER, S-9, PHENOBARBITAL, Method: PREINCUBATION): active; positive
- mutagenic call (Test System: AMES SALMONELLA TYPHIMURIUM, Strain/Indicator: TA100, Metabolic Activation: HAMSTER, LIVER, S-9, Method: PREINCUBATION): active; positive
- mutagenic call (Test System: AMES SALMONELLA TYPHIMURIUM, Strain/Indicator: TA100, Metabolic Activation: HUMAN, LIVER, S-9, Method: PREINCUBATION): inactive; negative
- mutagenic call (Test System: AMES SALMONELLA TYPHIMURIUM, Strain/Indicator: TA100, Metabolic Activation: MONKEY, LIVER, S-9, Method: PREINCUBATION): active; positive
- mutagenic call (Test System: AMES SALMONELLA TYPHIMURIUM, Strain/Indicator: TA100, Metabolic Activation: MOUSE, LIVER, S-9, 3-METHYLCHOLANTHRENE, Method: PREINCUBATION): active; positive
- mutagenic call (Test System: AMES SALMONELLA TYPHIMURIUM, Strain/Indicator: TA100, Metabolic Activation: MOUSE, LIVER, S-9, PHENOBARBITAL, Method: PREINCUBATION): active; positive
- mutagenic call (Test System: AMES SALMONELLA TYPHIMURIUM, Strain/Indicator: TA100, Metabolic Activation: MOUSE, LIVER, S-9, Method: PREINCUBATION): active; positive
- mutagenic call (Test System: AMES SALMONELLA TYPHIMURIUM, Strain/Indicator: TA100, Metabolic Activation: NONE, Method: PREINCUBATION): inactive; negative
- mutagenic call (Test System: AMES SALMONELLA TYPHIMURIUM, Strain/Indicator: TA100, Metabolic Activation: RABBIT, LIVER, S-9, Method: PREINCUBATION): active; positive
- mutagenic call (Test System: AMES SALMONELLA TYPHIMURIUM, Strain/Indicator: TA100, Metabolic Activation: RAT, LIVER, CYTOSOL, PCB, Method: PREINCUBATION): inactive; negative
- mutagenic call (Test System: AMES SALMONELLA TYPHIMURIUM, Strain/Indicator: TA100, Metabolic Activation: RAT, LIVER, MICROSOMES AND CYTOSOL, PCB, Method: PREINCUBATION): active; positive
- mutagenic call (Test System: AMES SALMONELLA TYPHIMURIUM, Strain/Indicator: TA100, Metabolic Activation: RAT, LIVER, MICROSOMES AND G6PDH, PCB, Method: PREINCUBATION): active; positive
- mutagenic call (Test System: AMES SALMONELLA TYPHIMURIUM, Strain/Indicator: TA100, Metabolic Activation: RAT, LIVER, MICROSOMES, PCB, Method: PREINCUBATION): active; positive
- mutagenic call (Test System: AMES SALMONELLA TYPHIMURIUM, Strain/Indicator: TA100, Metabolic Activation: RAT, LIVER, S-9 (HEATED), PCB, Method: PREINCUBATION): inactive; negative
- mutagenic call (Test System: AMES SALMONELLA TYPHIMURIUM, Strain/Indicator: TA100, Metabolic Activation: RAT, LIVER, S-9, 3-METHYLCHOLANTHRENE, Method: PREINCUBATION): active; positive
- mutagenic call (Test System: AMES SALMONELLA TYPHIMURIUM, Strain/Indicator: TA100, Metabolic Activation: RAT, LIVER, S-9, PCB, Method: PREINCUBATION): active; positive
- mutagenic call (Test System: AMES SALMONELLA TYPHIMURIUM, Strain/Indicator: TA100, Metabolic Activation: RAT, LIVER, S-9, PHENOBARBITAL, Method: PREINCUBATION): active; positive
- mutagenic call (Test System: AMES SALMONELLA TYPHIMURIUM, Strain/Indicator: TA100, Metabolic Activation: RAT, LIVER, S-9, Method: PREINCUBATION): active; positive
- mutagenic call (Test System: AMES SALMONELLA TYPHIMURIUM, Strain/Indicator: TA100, Metabolic Activation: RAT, LIVER, S-9 WITHOUT NADP+, PCB, Method: PREINCUBATION): inactive; negative
- mutagenic call (Test System: AMES SALMONELLA TYPHIMURIUM, Strain/Indicator: TA100, Method: PREINCUBATION): active; positive

Compound: C=CC(O)CCCCC (stereo not given)
- mutagenic call (Test System: CHINESE HAMSTER V-79, Strain/Indicator: V-79 (HPRT)/6-THIOGUANINE, Metabolic Activation: NONE, Method: STANDARD PLATE): inactive; negative
- mutagenic call (Test System: CHINESE HAMSTER V-79, Strain/Indicator: V-79 (HPRT)/6-THIOGUANINE, Metabolic Activation: RAT LIVER S-9, Method: STANDARD PLATE): inactive; negative

Compound: COc1ccc2c(c1)[C@H]1CCCC[C@@H]1[C@@H]1O[C@H]21
- mutagenic call (Test System: AMES SALMONELLA TYPHIMURIUM, Strain/Indicator: TA98, Metabolic Activation: NONE, Method: STANDARD PLATE): inactive; negative
- mutagenic call [1]: inactive; negative

Compound: c1ccc2c(c1)ccc1c3ccccc3sc21
- mutagenic call (Test System: AMES SALMONELLA TYPHIMURIUM, Strain/Indicator: TA100, Metabolic Activation: RAT, LIVER, S-9, AROCLOR 1254, Method: PREINCUBATION): active; positive

Compound: CC(=O)/C=C/CCC(=O)/C=C/C(=O)O[C@@H](CCC(=O)/C=C/C(=O)O)CC(C)=O
- mutagenic call (Test System: CHINESE HAMSTER V-79, Strain/Indicator: V-79 (HPRT)/6-THIOGUANINE, Metabolic Activation: NONE): active; positive

Compound: Cc1ccc2c(C)c3ccc4c(c3nc2c1)C=C[C@H](O)[C@H]4O
- mutagenic call (Test System: AMES SALMONELLA TYPHIMURIUM, Strain/Indicator: TA100, Metabolic Activation: RAT, LIVER, S-9, AROCLOR 1254, Method: STANDARD PLATE): active; positive

Compound: O=C(O)c1cc2c(c3c1c([N+](=O)[O-])cc1ccccc13)OCO2
- mutagenic call (Test System: AMES SALMONELLA TYPHIMURIUM, Strain/Indicator: TA98, Metabolic Activation: RAT, LIVER, S-9, Method: STANDARD PLATE): inactive; negative
- mutagenic call [1]: active; positive
- mutagenic call (Test System: AMES SALMONELLA TYPHIMURIUM, Strain/Indicator: TA100, Metabolic Activation: RAT, LIVER, CYTOSOL, Method: STANDARD PLATE): active; positive
- mutagenic call (Test System: AMES SALMONELLA TYPHIMURIUM, Strain/Indicator: TA100, Metabolic Activation: RAT, LIVER, MICROSOMES, Method: STANDARD PLATE): active; positive
- mutagenic call (Test System: AMES SALMONELLA TYPHIMURIUM, Strain/Indicator: TA100, Metabolic Activation: RAT, LIVER, S-9, 3-METHYLCHOLANTHRENE, Method: STANDARD PLATE): active; positive
- mutagenic call (Test System: AMES SALMONELLA TYPHIMURIUM, Strain/Indicator: TA1537, Metabolic Activation: NONE, Method: STANDARD PLATE): active; positive
- mutagenic call (Test System: AMES SALMONELLA TYPHIMURIUM, Strain/Indicator: YG1020, Metabolic Activation: NONE, Method: STANDARD PLATE): active; positive
- mutagenic call (Test System: AMES SALMONELLA TYPHIMURIUM, Strain/Indicator: YG1021, Metabolic Activation: NONE, Method: STANDARD PLATE): active; positive
- mutagenic call (Test System: AMES SALMONELLA TYPHIMURIUM, Strain/Indicator: YG1024, Metabolic Activation: NONE, Method: STANDARD PLATE): active; positive
- mutagenic call (Test System: AMES SALMONELLA TYPHIMURIUM, Strain/Indicator: YG1025, Metabolic Activation: NONE, Method: STANDARD PLATE): active; positive
- mutagenic call (Test System: AMES SALMONELLA TYPHIMURIUM, Strain/Indicator: YG1026, Metabolic Activation: NONE, Method: STANDARD PLATE): active; positive
- mutagenic call (Test System: AMES SALMONELLA TYPHIMURIUM, Strain/Indicator: YG1029, Metabolic Activation: NONE, Method: STANDARD PLATE): active; positive
